From patent US20100330148A1, “MEHODS AND COMPOSITIONS FOR INHIBITING IMPDH-1 ISOFORM 1” (The Johns Hopkins University, priority 2006, published 2010)
Where “and” joins values, the source holds several entries; their conditions need not be identical. Identical values can stand only once.

Tests used:
[1] = test system: human umbilical vein endothelial cells (HUVEC); experiment: HUVEC proliferation, [3H]-thymidine incorporation; assay type: cell-based
Method: (§1) Library construction. 32,000 FDA drug approvals obtained by Freedom of Information Act requests were condensed to 3,400 unique drug formulations. Drugs were purchased from Sigma, Spectrum Chemicals, MP Biomedicals, The Johns Hopkins Hospital pharmacy, Biomol, and Tocris. 10 mM stock solutions were made using DMSO, water, or ethanol as solvents. Drugs were arrayed in 96-well plates and screened at a final concentration of 10 μM. Cells were incubated with drug for 36 h and proliferation was measured by pulsing with 1 μCi [^3H]-thymidine for 8 h followed by absorption onto glass filters and scintillation counting.
(§2) Statistical analysis. IC50 measurements were carried out in triplicate, and analyzed using four parameter logarithmic analysis. Values are presented +/− the standard error of the mean. P-values were calculated using the Student's T-test. IC50 measurements are carried out using standard assays, and include assays described in Gilbert H J, Lowe C R, Drabble W T. Biochem J. 1979, 183:481-94; and Xiang, B., Taylor, J. C., and Markham, G. D. J. Biol. Chem., 271, 1435 (1996); the contents of which are incorporated herein by reference.
A library of 1,850 FDA-approved drugs and 600 drugs that entered the clinic via approval in a foreign country or phase II clinical trials was created. […]

[2] = test system: Jurkat T cells; experiment: Jurkat T-cell proliferation, [3H]-thymidine incorporation; assay type: cell-based
Method: as §1, §2
MPA is an immunosuppressive drug widely used to prevent rejection of transplanted organs (Lipsky, J. J: (1996) Lancet 348, 1357-1359.). The mechanism of action in the immune system is well established—MPA inhibits de novo biosynthesis of purines in T and B lymphocytes (Allison, A. C. & Eugui, E. M. (2000) Immunopharmacology 47, 85-118.). […] Thus, a comparison of HUVEC to Jurkat T cells for sensitivity to MPA in the presence and absence of guanine was carried out. […] Addition of guanine at or above 20 μM rendered Jurkat T cells resistant to MPA. Similar to Jurkat T cells, inhibition of HUVEC proliferation is also reversed by guanine in a dose-dependent manner (FIG. 1B). Unlike Jurkat T cells, however, HUVECs are less sensitive to guanine, the cause of which remains unknown. Similar reversal of MPA inhibition is also seen in HUVEC and Jurkat T-cells with the addition of exogenous guanosine and deoxyguanosine (data not shown).

[3] = test system: HUVEC; experiment: Cell cycle analysis of HUVEC; assay type: cell-based, human
Text: It has been shown that MPA causes cell cycle arrest in activated T and B lymphocytes at G1 (Laliberte, J., Yee, A., Xiong, Y. & Mitchell, B. S. (1998) Blood 91, 2896-2904.). Therefore, the effect of MPA on endothelial cell cycle progression was examined.

[4] = test system: VEGF and bFGF stimulated angiogenesis (new blood vessel formation); experiment: Matrigel plug angiogenesis assay in mice; assay type: in vivo, mouse; details: 60 mg/kg/day s.c., 10 days after plug implantation, vs vehicle, p<0.002
Method: In vivo angiogenesis. Female C57BL/6NCr 5-week old, 25-30 g mice were purchased from NCI and treated in accordance with Johns Hopkins ACUC procedures. In all animal experiments the MPA prodrug mycophenolate mofetil i.v. formulation (Roche) was used. Mice were pretreated with drug for three days and then implanted with 0.5 mL of Matrigel (BD Biosciences) containing 100 ng/mL VEGF and 150 ng/mL bFGF. Drug treatment was continued daily for 10 days, mice were sacrificed, and plugs were harvested, fixed in neutral buffered formalin, and processed for histology using MAS-trichrome staining. The entire Matrigel plug was photographed at 100× and erythrocyte-filled blood vessels were counted per field.
Matrigel plugs' containing VEGF and bFGF were subcutaneously implanted into mice. The control group was treated with saline vehicle and the MPA group was treated with 60 or 120 mg/kg/day of drug. […] To quantify these differences we counted erythrocyte-filled blood vessels per 100× field (FIG. 3E) (Fahmy, R. G., Dass, C. R., Sun, L. Q., Chesterman, C. N. & Khachigian, L. M. (2003) Nat. Med. 9, 1026-1032), and observed a 69% decrease in new blood vessel formation in mice treated with MPA in comparison with vehicle control (p<0.002). Thus, MPA is capable of inhibiting angiogenesis at a therapeutically achievable dose in vivo.

[5] = test system: RENCA cells; experiment: Murine renal cell carcinoma (RENCA) tumor model; assay type: in vivo, mouse; details: mice
Method: Renal cell tumor model. Female BALB/C5-6 week old, 25-30 g mice were purchased from NCI. Logarithmically growing RENCA cells (5×10^5) in 50 μL 50% PBS, 50% Matrigel were injected into the renal subcapsule through an incision in the left flank (Drevs, J., Hofmann, I., Hugenschmidt, H., Wittig, C., Madjar, H., Muller, M., Wood, J., Martiny-Baron, G., Unger, C. & Marme, D. (2000) Cancer Res. 60, 4819-4824.). The mice were sacrificed 3.5 weeks after surgery and the primary tumors were dissected and fixed for immunohistochemistry. For CD31 analysis eight fields with the highest level of angiogenesis were selected per tumor for quantification using ImagePro Plus software (Media Cybernetics), and represented as mean percentage area occupied by CD31 positive blood vessels.
Angiogenesis has been implicated in tumor growth among a number of other diseases. Although MPA inhibits fast-growing tumor cell lines in culture and in mouse xenograph experiments (Tressler, R. J., Garvin, L. J. & Slate, D. L. (1994) Int. J. Cancer 57, 568-573, Carter, S. B., Franklin, T. J., Jones, D. F., Leonard, B. J., Mills, S. D., Turner, R. W. & Turner, W. B. (1969) Nature 223, 848-850), it is unclear whether MPA also affects tumor-associated angiogenesis. We determined the efficacy of MPA in inhibiting tumor-associated angiogenesis in a murine renal cell carcinoma (RENCA) model (Salup, R. R. & Wiltrout, R. H. (1986) Cancer Res. 46, 3358-3363). MPA inhibited the growth of the primary tumor in a dose-dependent fashion, causing a 34% and 27% decrease in volume and weight, respectively, at 60 mg/kg/day and a 64% decrease in both volume and weight at 120 mg/kg/day (p<0.001) (FIG. 4A). The decrease in tumor growth caused by MPA at 120 mg/kg/day was accompanied by a 48% decrease in the area of CD31 positive staining blood vessels per 200× field (p<0.001).

[6] = human renal transplant patients, chronic oral treatment; cited from earlier work
[7] = small cohorts of cancer patients (<35), diethanolamine salt; cited from earlier work

| IC50 ([2]; Homo sapiens, Jurkat, [3H]-thymidine incorporation, +/- standard error of the mean) | SMILES | IC50 ([1]; Homo sapiens, HUVEC, [3H]-thymidine incorporation, +/- standard error of the mean) | MPA inhibition of HUVEC proliferation with exogenous guanine ([1]; guanine 10 μM and 20 μM) | MPA inhibition of Jurkat T-cell proliferation with exogenous guanine ([2]; guanine 10 μM) | MPA inhibition of Jurkat T-cell proliferation with exogenous guanine ([2]; guanine 20 μM and 50 μM) | cell cycle effect ([3]; 1 μM MPA) | population of cells in S phase ([3]; 1 μM MPA (control 12%)) | population of cells in G2/M phase ([3]; 1 μM MPA (control 17.8%)) | population of cells in G1 phase ([3]; 1 μM MPA (control 71%)) | cell cycle effect of MPA after addition of guanosine ([3]; 1 μM MPA + 50 μM guanosine) | decrease in new blood vessel formation (erythrocyte-filled blood vessels per 100× field) [4] | decrease in primary tumor volume ([5]; 60 mg/kg/day) | decrease in primary tumor weight ([5]; 60 mg/kg/day) | decrease in primary tumor volume ([5]; 120 mg/kg/day, p<0.001) | decrease in primary tumor weight ([5]; 120 mg/kg/day, p<0.001) | decrease in area of CD31 positive staining blood vessels per 200× field ([5]; 120 mg/kg/day, p<0.001, 120 mg/kg/day) | half life [6] | peak plasma level [6] | toxicity in patients [7] |
| --- | --- | --- | --- | --- | --- | --- | --- | --- | --- | --- | --- | --- | --- | --- | --- | --- | --- | --- | --- |
| 128 nM | COc1c(C)c2c(c(O)c1C/C=C(\C)CCC(=O)O)C(=O)OC2 [MPA, mycophenolic acid] | 99.2 nM | partially reversed | unaffected | completely reversed | G1/S cell cycle arrest | 6.5% | 12.4% | 81% | completely reversed | 69% | 34% | 27% | 64% | 64% | 49% and 48% | 18 h | 75 µM | – |
| – | COc1c(C)c2c(c(O)c1CC=C(C)CCC(=O)O)C(=O)OC2.OCCNCCO [diethanolamine salt of MPA] | – | – | – | – | – | – | – | – | – | – | – | – | – | – | – | – | – | considerable dose-limiting gastrointestinal toxicity |
